{"source": "ChEMBL document CHEMBL4616617", "about": "“Two Decades of Successful SAR-Grounded Stories of the Novel Bacterial Topoisomerase Inhibitors (NBTIs)” (J Med Chem, 2020)", "key": {"[1]": {"test": "Inhibition of Staphylococcus aureus N-terminal His6-tagged DNA gyrase B expressed in Escherichia coli BL21(DE3) cells using relaxed pBR322 DNA as substrate incubated for 1 hr by agarose gel electrophoresis method"}, "Topoisomerase IV": {"molecular_target": "Topoisomerase IV (Staphylococcus aureus, UniProt P0C1S7+P0C1U9)", "sequence (P0C1U9 whole entry)": "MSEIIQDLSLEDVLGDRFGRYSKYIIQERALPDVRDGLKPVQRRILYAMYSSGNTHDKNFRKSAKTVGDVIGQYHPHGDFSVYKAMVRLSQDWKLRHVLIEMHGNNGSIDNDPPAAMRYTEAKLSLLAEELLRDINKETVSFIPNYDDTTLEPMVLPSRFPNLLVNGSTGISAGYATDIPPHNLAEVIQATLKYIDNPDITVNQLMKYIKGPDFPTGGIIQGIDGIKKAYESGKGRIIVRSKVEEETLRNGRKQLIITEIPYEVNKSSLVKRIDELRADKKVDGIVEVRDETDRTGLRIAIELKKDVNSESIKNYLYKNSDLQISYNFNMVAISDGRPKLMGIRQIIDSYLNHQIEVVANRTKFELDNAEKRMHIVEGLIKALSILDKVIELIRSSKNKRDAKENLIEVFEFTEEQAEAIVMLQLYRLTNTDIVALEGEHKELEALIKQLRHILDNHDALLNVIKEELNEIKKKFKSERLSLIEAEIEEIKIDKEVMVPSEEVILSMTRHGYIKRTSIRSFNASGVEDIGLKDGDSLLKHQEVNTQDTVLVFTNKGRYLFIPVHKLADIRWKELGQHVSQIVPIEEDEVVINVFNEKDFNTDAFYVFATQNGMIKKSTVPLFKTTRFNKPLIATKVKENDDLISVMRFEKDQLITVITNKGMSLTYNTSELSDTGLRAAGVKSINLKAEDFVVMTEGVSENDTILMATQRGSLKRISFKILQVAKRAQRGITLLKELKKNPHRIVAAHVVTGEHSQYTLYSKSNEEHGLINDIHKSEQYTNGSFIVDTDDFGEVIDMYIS", "sequence (P0C1S7 whole entry)": "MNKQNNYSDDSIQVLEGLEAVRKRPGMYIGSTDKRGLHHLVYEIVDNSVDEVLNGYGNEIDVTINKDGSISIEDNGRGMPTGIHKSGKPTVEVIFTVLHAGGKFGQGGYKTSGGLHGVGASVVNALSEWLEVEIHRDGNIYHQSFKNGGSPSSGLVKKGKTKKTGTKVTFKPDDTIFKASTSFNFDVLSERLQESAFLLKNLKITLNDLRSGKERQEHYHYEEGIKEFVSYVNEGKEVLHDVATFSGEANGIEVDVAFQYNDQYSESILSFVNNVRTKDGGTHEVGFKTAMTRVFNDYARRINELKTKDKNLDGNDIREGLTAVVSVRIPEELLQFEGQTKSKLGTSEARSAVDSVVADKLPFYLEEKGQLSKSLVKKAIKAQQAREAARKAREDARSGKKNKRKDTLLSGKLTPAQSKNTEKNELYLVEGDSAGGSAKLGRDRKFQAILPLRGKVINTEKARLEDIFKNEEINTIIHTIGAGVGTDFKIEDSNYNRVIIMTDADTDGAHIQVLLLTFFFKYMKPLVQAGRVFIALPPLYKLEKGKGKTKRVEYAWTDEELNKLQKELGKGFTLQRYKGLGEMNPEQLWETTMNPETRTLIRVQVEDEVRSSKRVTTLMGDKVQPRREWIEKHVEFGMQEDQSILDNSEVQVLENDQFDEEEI", "test": "Inhibition of Staphylococcus aureus RN4220 DNA topoisomerase 4 expressed in Escherichia coli BL21(DE3) cells using supercoiled pBR322 DNA as substrate by agarose gel electrophoresis method"}, "[2]": {"test": "Inhibition of Escherichia coli DNA topoisomerase 4 using supercoiled pBR322 DNA as substrate by agarose gel electrophoresis method"}, "Staphylococcus aureus [3]": {"tested_on": "Staphylococcus aureus", "test": "Antibacterial activity against Staphylococcus aureus assessed as reduction in microbial growth after 18 hrs by NCCLS based method", "format": "functional"}, "Staphylococcus aureus [4]": {"tested_on": "Staphylococcus aureus", "test": "Antibacterial activity against Staphylococcus aureus A798 assessed as reduction in microbial growth by CLSI based broth microdilution method", "format": "functional"}, "Escherichia coli [5]": {"tested_on": "Escherichia coli", "test": "Antibacterial activity against Escherichia coli ATCC 25922 assessed as reduction in microbial growth by CLSI based broth microdilution method", "format": "functional"}, "Staphylococcus aureus [6]": {"tested_on": "Staphylococcus aureus", "test": "Antibacterial activity against Staphylococcus aureus assessed as reduction in microbial growth by CLSI based broth microdilution method", "format": "functional"}, "Staphylococcus aureus [7]": {"tested_on": "Staphylococcus aureus", "test": "Antibacterial activity against methicillin-resistant Staphylococcus aureus assessed as reduction in microbial growth by CLSI based broth microdilution method", "format": "functional"}, "Staphylococcus aureus [8]": {"tested_on": "Staphylococcus aureus", "test": "Antibacterial activity against methicillin-sensitive Staphylococcus aureus assessed as reduction in microbial growth by CLSI based broth microdilution method", "format": "functional"}, "Staphylococcus aureus [9]": {"tested_on": "Staphylococcus aureus", "test": "Antibacterial activity against levofloxacin-resistant Staphylococcus aureus assessed as reduction in microbial growth by CLSI based broth microdilution method", "format": "functional"}, "Escherichia coli [10]": {"tested_on": "Escherichia coli", "test": "Antibacterial activity against Escherichia coli assessed as reduction in microbial growth by CLSI based broth microdilution method", "format": "functional"}, "Escherichia coli [11]": {"tested_on": "Escherichia coli", "test": "Antibacterial activity against levofloxacin-susceptible Escherichia coli assessed as reduction in microbial growth by CLSI based broth microdilution method", "format": "functional"}, "Escherichia coli [12]": {"tested_on": "Escherichia coli", "test": "Antibacterial activity against levofloxacin-nonsusceptible Escherichia coli assessed as reduction in microbial growth by CLSI based broth microdilution method", "format": "functional"}, "Streptococcus pneumoniae [13]": {"tested_on": "Streptococcus pneumoniae", "test": "Antibacterial activity against Streptococcus pneumoniae assessed as reduction in microbial growth by CLSI based broth microdilution method", "format": "functional"}, "Streptococcus pneumoniae [14]": {"tested_on": "Streptococcus pneumoniae", "test": "Antibacterial activity against penicillin-susceptible Streptococcus pneumoniae assessed as reduction in microbial growth by CLSI based broth microdilution method", "format": "functional"}, "Streptococcus pneumoniae [15]": {"tested_on": "Streptococcus pneumoniae", "test": "Antibacterial activity against penicillin-intermediate Streptococcus pneumoniae assessed as reduction in microbial growth by CLSI based broth microdilution method", "format": "functional"}, "Streptococcus pneumoniae [16]": {"tested_on": "Streptococcus pneumoniae", "test": "Antibacterial activity against penicillin-resistant Streptococcus pneumoniae assessed as reduction in microbial growth by CLSI based broth microdilution method", "format": "functional"}, "Streptococcus pneumoniae [17]": {"tested_on": "Streptococcus pneumoniae", "test": "Antibacterial activity against levofloxacin-nonsusceptible Streptococcus pneumoniae assessed as reduction in microbial growth by CLSI based broth microdilution method", "format": "functional"}, "Haemophilus influenzae": {"tested_on": "Haemophilus influenzae", "test": "Antibacterial activity against Haemophilus influenzae assessed as reduction in microbial growth by CLSI based broth microdilution method", "format": "functional"}, "Neisseria gonorrhoeae": {"tested_on": "Neisseria gonorrhoeae", "test": "Antibacterial activity against Neisseria gonorrhoeae assessed as reduction in microbial growth by agar dilution method", "format": "functional"}}}
{"smiles": "COc1ccc2ncc(F)c([C@@H](O)CC[C@@H]3CCN(CCSc4cccs4)C[C@@H]3C(=O)O)c2c1", "values": [{"measurement": "IC50", "setting": "[1]", "result": 1, "unit": "µM"}, {"measurement": "IC50", "setting": "Topoisomerase IV", "result": 0.3, "unit": "µM"}, {"measurement": "IC50", "setting": "[2]", "result": 0.2, "unit": "µM"}, {"measurement": "MIC", "setting": "Staphylococcus aureus [3]", "result": "0.12 to 1", "unit": "µg/mL"}]}
{"smiles": "CN1CC(Oc2cccc(-c3cccc(CNCC[C@@H]4CN(c5ccc6c(n5)NC(=O)CO6)C(=O)O4)c3)n2)C1", "values": [{"measurement": "MIC", "setting": "Staphylococcus aureus [4]", "result": 0.25, "unit": "µg/mL"}, {"measurement": "MIC", "setting": "Escherichia coli [5]", "result": 0.25, "unit": "µg/mL"}]}
{"smiles": "O=c1ccc2ncc(=O)n3c2n1C[C@H]3CN1CCC(NCc2cc3c(cn2)OCCC3)CC1", "note": "[GEPOTIDACIN]", "values": [{"measurement": "MIC90", "setting": "Staphylococcus aureus [6]", "result": 0.5, "unit": "µg/mL"}, {"measurement": "MIC90", "setting": "Staphylococcus aureus [7]", "result": 0.5, "unit": "µg/mL"}, {"measurement": "MIC90", "setting": "Staphylococcus aureus [8]", "result": 0.5, "unit": "µg/mL"}, {"measurement": "MIC90", "setting": "Staphylococcus aureus [9]", "result": 0.5, "unit": "µg/mL"}, {"measurement": "MIC90", "setting": "Escherichia coli [10]", "result": 2, "unit": "µg/mL"}, {"measurement": "MIC90", "setting": "Escherichia coli [11]", "result": 2, "unit": "µg/mL"}, {"measurement": "MIC90", "setting": "Escherichia coli [12]", "result": 2, "unit": "µg/mL"}, {"measurement": "MIC90", "setting": "Streptococcus pneumoniae [13]", "result": 0.25, "unit": "µg/mL"}, {"measurement": "MIC90", "setting": "Streptococcus pneumoniae [14]", "result": 0.25, "unit": "µg/mL"}, {"measurement": "MIC90", "setting": "Streptococcus pneumoniae [15]", "result": 0.25, "unit": "µg/mL"}, {"measurement": "MIC90", "setting": "Streptococcus pneumoniae [16]", "result": 0.25, "unit": "µg/mL"}, {"measurement": "MIC90", "setting": "Streptococcus pneumoniae [17]", "result": 0.25, "unit": "µg/mL"}, {"measurement": "MIC90", "setting": "Haemophilus influenzae", "result": 1, "unit": "µg/mL"}, {"measurement": "MIC90", "setting": "Neisseria gonorrhoeae", "result": 0.25, "unit": "µg/mL"}]}
